According to patent publication US12454506B2, “Benzoate derivatives” (ZHEJIANG YUEJIA PHARMACEUTICALS CO., LTD, priority 2022, dated 2025):

Legend:
[1] = Solubility in purified water; type: physicochemical; conditions: thermodynamic from solid, compound added stepwise to 2 mL until hypersaturated or 2.0 g added
Description: About […] of the compound (A or B or C) to be tested was weighed and placed into a 10 mL sample tube, 2 mL of purified water was added, and the mixture was mixed well. In case of complete dissolution, about […] of the compound to be tested was replenished continuously, and the mixture was mixed well until a hypersaturated state was reached or the compound to be tested was added to 2.0 g. If the compound to be tested was added to […] and is still completely dissolved, the solubility of the compound to be tested in water was recorded as >1.0 g/mL.

[2] = system: inflammatory factor MCP-1 mRNA in H9c2 cells; experiment: TNF-α-induced H9c2 cell inflammation model, MCP-1 mRNA by RT-PCR; type: cell-based, rat; conditions: 2 h pre-incubation, 10 ng/mL TNF-α for 1 h, compounds A and C 5/1/0.2 mM, compound B 3/1/0.2 mM, FIG. 8
Description: The pH value was adjusted to 7.2 with 1 M HCl, and ultrapure water was used to reach the constant volume of 1 L. Finally, the medium was filtered into a sterile container by membrane filtration using a 0.22 m constant-volume filter. (After filtration, the pH value might rise by 0.1 to 0.3 units) • 1.3 Formulation of positive control drug: a dexamethasone solution: […] of dexamethasone was added to 5 mL of DMSO and shaken for dissolution. 1000×solution (10 mM) was obtained. The solution was aliquoted and stored in a refrigerator at −20° C. • 1.4 Formulation of test sample solution: […]
Compound A/compound B/compound C: the test sample was weighed at an appropriate mass and dissolved in DMSO to formulate a solution with a final concentration of 1 M, and the solution was aliquoted and then stored at −20° C. • 1.5 Penicillin/streptomycin biantibiotics solution: 8 million units/vial penicillin plus 40 mL of ultrapure water were mixed well, 1 g/vial streptomycin plus 50 mL of ultrapure water were mixed well, the two mixtures were mixed at a volume ratio of 1:1 to obtain 100×penicillin-streptomycin biantibiotics solution (containing 100,000 units/mL penicillin and 10 mg/mL streptomycin). After filtration through a 0.22 m sterile microfiltration membrane, the solution was aliquoted at 10 mL/tube, and stored in a refrigerator at −20° C. • 1.6 Formulation of buffer solution: • PBS: […] of NaCl, […] of KCl, […] of Na2HPO4 and […] of KH2PO4 were respectively weighed and placed in a 1 L volumetric flask; ultrapure water was added to 900 mL; the pH was adjusted to 7.2 with concentrated hydrochloric acid; and the volume was finalized to 1 L. The mixture was stored at room temperature. • 2. […]

| SMILES | solubility [1] [mg/mL] | inhibition of the elevation of the mRNA level of the inflammatory factor MCP-1 [2] |
| --- | --- | --- |
| CC[N+]([O-])(CC)CCOC(=O)c1ccccc1OC(C)=O [compound A] | > 1000 | dose-dependent inhibition |
| CCN(CC)CCOC(=O)c1ccccc1OC(=O)CCl [compound B] | > 1000 | dose-dependent inhibition |
| CCN(CC)CCOC1(C)OC(=O)c2ccccc2O1 (stereo not drawn) [compound C] | > 1000 | dose-dependent inhibition |
